Entries after “also recorded” stand apart in the source; their conditions may differ.
Columns and labels:
GFP-MSCs = experiment: differentiation of GFP-MSCs into beating cardiac myocytes in co-culture with rat cardiac myocytes; type: cell-based, mice; details: 10 μg/ml
Text: FIG. 18 depicts HUYA-1-induced differentiation of GFP-MSCs into beating cardiac myocytes in co-culture system. This screenshot was taken from a video showing beating GFP-positive myocytes (enclosed areas) differentiated from the GFP-MSCs, which were co-cultured with rat cardiac myocytes and fibroblasts and then treated with HUYA-1. Since the culture contained non-GFP myocytes and fibroblasts and GFP-MSCs, any beating cells with GFP-positive signals that were identified must have differentiated from GFP-MSCs.
Bone marrow GFP-MSCs were isolated from the tibias/femur bones of GFP-transgenic mice. The GFP-MSCs were co-cultured with the cardiac myocytes isolated from neonatal SD rats in the presence of HUYA-1 (10 μg/ml IMDM culture medium) to mimic the cardiac micro-environment. The cultures were investigated daily, under a fluorescent microscope, to identify beating GFP-positive cells and to gauge the morphological transition of the cultured GFP-MSCs.

[1] = system: mesenchymal stem cells (MSCs); experiment: cardiogenic morphological transition of cultured MSCs (phase contrast microscope); type: cell-based, rat; details: for MSCs undergoing narrowing and becoming more refractive (cardiogenic morphological transition), D3 / MSCs undergoing narrowing and becoming more refractive (cardiogenic morphological transition), D7: 10 μg/ml; for MSCs undergoing narrowing and becoming more refractive (cardiogenic morphological transition), D3: treated for 3 days; for MSCs undergoing narrowing and becoming more refractive (cardiogenic morphological transition), D7: treated for 7 days; for activity in inducing cardiogenic differentiation of MSCs (in words): summary statements
Procedure: FIG. 14 presents photomicrographs that illustrate the activity of Car, HUYA-1 and HUYA-2, each 10 μg/ml, in inducing the cardiogenic morphological transition of mesenchymal stem cells (MSCs). D0, cultures of MSCs were set up before any treatment. The morphology of the MSCs was characterized by flat, irregular, low refracted and well-spread shapes (circles). D3, sample of the cultured MSCs were treated for 3 days with compounds as respectively labeled. […] D7, the cultured MSCs samples were treated for 7 days with compounds as respectively labeled. More MSCs (˜48%) in Car- and HUYA-1-treated cultures underwent narrowing and became more refractive (circles).
FIG. 15 provides a comparison, via photomicrographs, of HUYA-3 (10 μg/ml) with HUYA-4 (10 μg/ml) in inducing cardiogenic morphological transition of MSCs. Ctrl denotes the MSCs treated with vehicle (10% DMSO in equivalent volume). D0, the MSCs cultures were set before any treatment. The morphology of the MSCs was characterized by flat, irregular, low refracted and well-spread shapes (circles). D3, sample of the cultured MSCs were treated for 3 days with compounds as respectively labeled. […] D7, the cultured MSCs samples were treated for 7 days with compounds as respectively labeled. A similar amount of the MSCs (˜22%) in HUYA-4-treated cultures became narrowing and more refractive (ovals).
Testing was performed according to the procedures described in the following: The tibias/femur bones of rats were removed and the BM was flushed out of the bones with alpha IMDM culture medium. The BM was mixed well and centrifuged at 1,500 rpm for 5 minutes. The cell pellet was suspended with 3 ml culture medium, and the forming cell suspension was carefully put on 4 ml Ficoll solution, to minimize disturbance, and then was centrifuged at […] for 30 minutes. The second layer was transferred into a tube and washed twice with PBS to remove Ficoll (1,200 rpm for 5 minutes). The resulting cell pellet was resuspended in IMDM culture medium containing 10% heat-inactivated FBS (GIBCO) and 1% penicillin/streptomycin antibiotic mixture, and this was used for the tests. Non-adherent cells were discarded after 24 hours culturing. The adherent cells were cultured by changing medium every 3 days. The cells became nearly confluent after 14 days culture. To activate the cardiogenic morphology transition, the MSCs were cultured for 7 days in the presence of the HUYA-1, HUYA-2, HUYA-3, HUYA-4 or Car (10 μg/ml IMDM culture medium), respectively. The treating period-dependent morphological transition was evaluated, on a time-lapse basis, with a phase contrast microscope.

[2] = system: mesenchymal stem cells (MSCs); experiment: fluorescent immunocytochemistry for cardiogenic differentiation markers Mef2a and MHC beta in treated MSCs; type: cell-based, rat; details: 10 μg/ml; for treated cells with Mef2a-positive staining (D3): treated for 3 days; for treated cells with MHC beta-positive signals (D7): treated for 7 days
Procedure: FIG. 16 depicts immunofluorescence staining for expression of cardiogenic differentiation markers, Mef2a (fluorescence in D3) and beta, MHC beta (fluorescence in D7). D3 and D7, the cultured MSCs samples were treated with the compounds, as labeled, for 3 and 7 days, respectively. Neg is the negative control of MSCs culture, with no use of the first antibody specific to Mef2a or MHC beta, showing negative signals of Mef2a (D3) and MHC (D7) staining Ctrl represents the cultured MSCs treated with the equivalent volume of 10% DMSO, with almost no positive Mef2a (D3) and MHC beta (D7) signals observed.
FIG. 17 depicts immunofluorescence staining for expressions of early cardiogenic differentiation marker, Mef2a (fluorescence in D3) and cardiac specific myosin heavy chain beta, MHC (fluorescence in D7). D3 and D7, the cultured MSCs samples were treated with the compounds, as labeled, for 3 and 7 days, respectively.
The method for the fluorescent-immunostaining is summarize briefly: The cultured cells were fixed with 4% paraformaldehyde in PBS for 15 minutes and permeabilized with 0.5% Triton X-100 for 15 minutes. Dilution of antibodies was as follows: rabbit polyclonal antibodies specific to rat MEF2a (1:500) and mouse monoclonal antibodies specific to MHC (1:500) (both antibodies from Abcam®). Secondary antibodies were goat anti-mouse and rabbit anti-IgG antibodies conjugated with fluorophore (FITC 495/528 and Cy5 650/667, products of Abcam®), respectively. The nuclei were stained with DAPI. Examined by fluorescent microscopy were the cardiogenic differentiation-associated morphological transition and specific marker protein expression of the cultured MSCs.

[3] = solubility in cell culture medium; type: physicochemical; details: compared with HUYA-1
Text: The DMSO concentration was increased from 5% to 10% to increase the solubility of HUYA-4.

[4] = stress tests of the separated cardiogenin isomers; details: storage in MTBE/IPA=50:50 or as solids at 40° C. for 24 hours
Procedure: Stress tests were performed to determine whether the two cardiogenin isomers separated from each other are stable and not converting into each other. In particular, the two cardiogenin isomers were stressed by storage in MTBE/IPA=50:50 or as solids at 40° C. (the major isomer in solution and solid; the minor isomer only in solution) for 24 hours.

[5] = listed as cardiogenin major isomer

C[C@@H]1CC[C@]2(C(=O)O)CC[C@]3(C)C(=CCC4[C@@]5(C)C[C@@H](O)[C@H](O)[C@@](C)(CO)C5CC[C@]43C)C2[C@]1(C)O (stereo partly shown) [HUYA-4]
differentiation of MSCs into beating cardiac myocytes (GFP-MSCs): beating cardiomyocytes differentiate from MSCs | MSCs undergoing narrowing and becoming more refractive (cardiogenic morphological transition), D3 [1]: ~20% | MSCs undergoing narrowing and becoming more refractive (cardiogenic morphological transition), D7 [1]: ~22% | activity in inducing cardiogenic differentiation of MSCs (in words) [1]: induced MSCs into cardiogenic differentiation | activity in inducing cardiogenic differentiation of MSCs (in words) ([1]; listed as aglycone): substantially enhanced differentiation into cardiomyocytes | treated cells with Mef2a-positive staining (D3) [2]: ~6% | treated cells with MHC beta-positive signals (D7) [2]: ~8% | solubility in cell culture medium [3]: lower solubility

C[C@@H]1CC[C@]2(C(=O)OC3OC(CO)C(O)C(O)C3O)CC[C@]3(C)C(=CCC4[C@@]5(C)C[C@@H](O)[C@H](O)[C@@](C)(CO)C5CC[C@]43C)C2[C@]1(C)O (stereo partly shown) [HUYA-1, cardiogenin]
differentiation of MSCs into beating cardiac myocytes (GFP-MSCs): induced cardiogenic differentiation of the GFP-MSCs to form beating cardiac myocytes; also recorded: can enhance the cardiogenic differentiation of MSCs into beating cardiac myocytes | differentiation of MSCs into beating cardiac myocytes (GFP-MSCs; [5]): beating cardiomyocytes differentiate from MSCs | MSCs undergoing narrowing and becoming more refractive (cardiogenic morphological transition), D3 [1]: ~31% | MSCs undergoing narrowing and becoming more refractive (cardiogenic morphological transition), D7 [1]: ~48% | cultured MSCs induced into cardiogenic differentiation ([1]; cell culture, summary of FIGS. 14 and 15): more than 20% | activity in inducing cardiogenic differentiation of MSCs (in words) [1]: most active compound | activity in inducing cardiogenic differentiation of MSCs (in words) [1, 5]: substantially enhanced differentiation into cardiomyocytes; also recorded: active | activity in inducing cardiogenic differentiation of MSCs (in words) ([1]; listed as isolated cardiogenin major isomer): biologically active | treated cells with Mef2a-positive staining (D3) [2]: approximately 15% | treated cells with MHC beta-positive signals (D7) [2]: 20%

cardiogenin [HUYA-2]
MSCs undergoing narrowing and becoming more refractive (cardiogenic morphological transition), D3 [1]: did not show clear morphological changes | MSCs undergoing narrowing and becoming more refractive (cardiogenic morphological transition), D7 [1]: no significant morphological change | activity in inducing cardiogenic differentiation of MSCs (in words) [1]: essentially inactive | activity in inducing cardiogenic differentiation of MSCs (in words) ([1]; listed as minor isomer): inactive | treated cells with Mef2a-positive staining (D3) [2]: almost no positive signals | treated cells with MHC beta-positive signals (D7) [2]: ~3% | stability under stress [4]: The same picture was obtained
